Data set [1] can be described thus: Solubility of DTPMP at room temperature in dependence on the concentration of sodium ions and chloride ions. It counts as physicochemical. The conditions noted are these: chloride ions in the range of from 1 to 4% by mass, room temperature (FIG. 13). The source says:
FIG. 13: Solubility of DTPMP at room temperature in dependence on the concentration of sodium ions and chloride ions in % by mass.

For data set [2] the following is noted: about 55% humidity at 22° C.
Description: In a further test, the influence of the degree of neutralisation of the phosphonic acid DTPMP on the hygroscopicity was studied, on account of its industrial relevance, especially the sodium salts. To that end, 10 g of sample were stored in four crystallisation dishes of equal size in a desiccator under constant humidity. Via a saturated magnesium nitrate solution with precipitate (about ⅓ precipitate in ⅔ of the solution), about 55% by weight humidity is established at 22° C. The water absorption of the samples was determined gravimetrically twice daily over a period of 22 days as the difference in mass (see FIG. 15).
A crystallisate of the α crystal modification with a foreign acid content of 3.8% by weight chloride and in total 6.6% by weight H3PO4 and H3PO3 per 100% by mass DTPMP was dissolved again. Portions were neutralised with sodium hydroxide solution to pH (1% strength)=1.7 for the Na0.5-DTPMP salt, pH (1% strength)=2.1 for the Na3-DTPMP salt and pH (1% strength)=6.6 for the Na7-DTPMP salt.
The nature of data set [3]: Determination of the hygroscopicity (gravimetric water absorption in desiccator at constant humidity). The format is physicochemical. The conditions noted are these: 22±2° C., relative humidity of 55%; for Relative water absorption: determined daily over 12 days. The method, then:
In order to determine the hygroscopicity, solid samples were stored in 25 ml glass beakers in a desiccator under constant humidity. […] The water absorption of the samples was determined gravimetrically once daily over a period of 12 days as the difference in mass (see FIG. 14).
Two spray-dried powders were tested as comparison with crystallisate samples of the crystallisates of the α, β and γ crystal modification.
A DTPMP synthesis product having the quality parameters from Table 4 used as the starting slurry for the crystallisation was spray dried with a Büchi-Mini Spray Dryer B-290.

The nature of data set [4]: Bulk density of the samples used for the hygroscopicity test. It counts as physicochemical.

`O=P(O)(O)CN(CCN(CP(=O)(O)O)CP(=O)(O)O)CCN(CP(=O)(O)O)CP(=O)(O)O` [DTPMP, diethylenetriamine penta(methylenephosphonic acid)]: in data set [1], the “Solubility of DTPMP (in words)” value is “further reduction in solubility”.

As for `O=P(O)(O)CN(CCN(CP(=O)(O)O)CP(=O)(O)O)CCN(CP(=O)(O)O)CP(=O)(O)O` [DTPMP acid, diethylenetriamine penta(methylenephosphonic acid)], in data set [2], the “Appearance of the sample after 22 days” value is given as “still recognisable”.

For the compound `O=P(O)(O)CN(CCN(CP(=O)(O)O)CP(=O)(O)O)CCN(CP(=O)(O)O)CP(=O)(O)O` [amorphous powder from spray drying of a DTPMP acid purified ] [reference compound], the Relative water absorption in data set [3] amounted to 0.29 % by mass/day. For the same compound, the “Hygroscopicity / water absorption capacity (in words)” value in data set [3] (listed as DTPMP quality purified by recrystallisation and spray dried) is given as “lower water absorption capacity than the unpurified crude product”. In addition, the Bulk density in data set [4] came to 0.27 g/mL.

`O=P(O)(O)CN(CCN(CP(=O)(O)O)CP(=O)(O)O)CCN(CP(=O)(O)O)CP(=O)(O)O` [Crystal form β, purified quality, diethylenetriamine penta(methylenephosphonic acid)] showed a Relative water absorption in data set [3] of 0.04 % by mass/day. In data set [3] (listed as crystal modification β), the “Hygroscopicity / water absorption capacity (in words)” value is given as “consistently low water absorption”. Further, the Bulk density in data set [4] came to 0.49 g/mL.

`O=P(O)(O)CN(CCN(CP(=O)(O)O)CP(=O)(O)O)CCN(CP(=O)(O)O)CP(=O)(O)O` [amorphous powder from spray drying of an unpurified DTPMP sy] [reference compound]: in data set [3], the Relative water absorption is 0.40 % by mass/day. Also, the “Hygroscopicity / water absorption capacity (in words)” value in data set [3] (listed as Spray-dried powders of the unpurified DTPMP synthesis product) is given as “greatest hygroscopicity”. For the same compound, the Bulk density in data set [4] was 0.27 g/mL.

In data set [3], `O=P(O)(O)CN(CCN(CP(=O)(O)O)CP(=O)(O)O)CCN(CP(=O)(O)O)CP(=O)(O)O` [Crystal form α, purified quality, diethylenetriamine penta(methylenephosphonic acid)] yielded a Relative water absorption of 0.03 % by mass/day. Further, in data set [3] (listed as crystal modification α), the “Hygroscopicity / water absorption capacity (in words)” value is “consistently low water absorption”. Besides, the Bulk density in data set [4] was 0.36 g/mL.

Consider `O=P(O)(O)CN(CCN(CP(=O)(O)O)CP(=O)(O)O)CCN(CP(=O)(O)O)CP(=O)(O)O` [Crystal form γ, purified quality, diethylenetriamine penta(methylenephosphonic acid)], for which the “Hygroscopicity / water absorption capacity (in words)” value in data set [3] is listed as “by far the lowest hygroscopicity”; in data set [3] (listed as crystal modification γ), “consistently low water absorption”. Besides, the Relative water absorption in data set [3] is 0.003 % by mass/day. The compound also showed a Bulk density in data set [4] of 0.59 g/mL.

`O=P([O-])([O-])CN(CCN(CCN(CP(=O)([O-])[O-])CP(=O)([O-])O)CP(=O)([O-])O)CP(=O)([O-])O.[Na+].[Na+].[Na+].[Na+].[Na+].[Na+].[Na+]` [Na7 salt]: the “Appearance of the sample after 22 days” value in data set [2] is listed as “liquefied”. Besides, the “Appearance of the sample after half the test time” value in data set [2] (after only half the test time (of 22 days)) is on record as “visibly contracting to form a block”.

(Values after patent US10590153B2, “Process for producing crystalline DTPMP” (Zschimmer & Schwarz Mohsdorf GmbH & Co. KG, priority 2014, dated 2020).)
